According to ChEMBL document CHEMBL1201862, “PubChem BioAssay data set” (2004):
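Dose response: 5 concentrations. Exposure: 48 h. Format: 96-well plates. Endpoint: linear interpolation; highest concentration if not reached. The concentration for 50% growth inhibition is given as GI50.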 Activity calls are given as the source filed them. Rule as the data show it: active = GI50 up to about 1.1 µM and inactive = higher.

Legend:
Assay in all cases: inhibition of tumour cell growth, NCI panel, 48 h
COLO 205 = tested on: COLO 205
SN12C = tested on: SN12C
HOP-62 = tested on: HOP-62
NCI-H226 = tested on: NCI-H226
Hs-578T = tested on: Hs-578T
MCF7 = tested on: MCF7
U-251 = tested on: U-251
OVCAR-3 = tested on: OVCAR-3
SF-268 = tested on: SF-268
UACC-257 = tested on: UACC-257
LOX IMVI = tested on: LOX IMVI
SR = tested on: SR
UO-31 = tested on: UO-31
DU-145 = tested on: DU-145
NCI-H460 = tested on: NCI-H460
A498 = tested on: A498
NCI/ADR-RES = tested on: NCI/ADR-RES
SK-MEL-28 = tested on: SK-MEL-28
A549 = tested on: A549
SNB-19 = tested on: SNB-19

Compound | GI50 (COLO 205) | GI50 (SN12C) | GI50 (HOP-62) | GI50 (NCI-H226) | GI50 (Hs-578T) | GI50 (MCF7) | GI50 (U-251) | GI50 (OVCAR-3) | GI50 (SF-268) | GI50 (UACC-257) | GI50 (LOX IMVI) | GI50 (SR) | GI50 (UO-31) | GI50 (DU-145) | GI50 (NCI-H460) | GI50 (A498) | GI50 (NCI/ADR-RES) | GI50 (SK-MEL-28) | GI50 (A549) | GI50 (SNB-19)
C=CC[C@@]12CCC(=O)C=C1CCCC2=O | > 100 µM (inactive) | > 100 µM (inactive) | > 100 µM (inactive) | > 100 µM (inactive) | > 100 µM (inactive) | > 100 µM (inactive) | > 100 µM (inactive) | > 100 µM (inactive) | > 100 µM (inactive) | > 100 µM (inactive) | > 100 µM (inactive) | > 100 µM (inactive) | > 100 µM (inactive) | > 100 µM (inactive) | > 100 µM (inactive) | > 100 µM (inactive) | > 100 µM (inactive) | > 100 µM (inactive) | > 100 µM (inactive) | > 100 µM (inactive)
O=C1/C(=C\c2cccs2)Oc2ccccc21 | 75.3 µM (inactive) | > 100 µM (inactive) | 39.9 µM (inactive) | 58.1 µM (inactive) | 45.7 µM (inactive) | 28.9 µM (inactive) | 51.6 µM (inactive) | 24.9 µM (inactive) | 51.1 µM (inactive) | 63.1 µM (inactive) | 51.3 µM (inactive) | > 100 µM (inactive) | 33 µM (inactive) | 50.9 µM (inactive) | 53.1 µM (inactive) | 42.3 µM (inactive) | 54.7 µM (inactive) | > 100 µM (inactive) | 56.9 µM (inactive) | 75.3 µM (inactive)
CC(=O)OCC1C(=O)OCC1C(=O)N1Cc2cc3ccccc3nc2C1 (stereo not given) | 0.653 µM (active) | 5.27 µM (inactive) | 16.6 µM (inactive) | 5.96 µM (inactive) | 7.14 µM (inactive) | 1.48 µM (inactive) | 11.3 µM (inactive) | 1.57 µM (inactive) | 7.41 µM (inactive) | 2.47 µM (inactive) | 2.45 µM (inactive) | 1.49 µM (inactive) | 3.95 µM (inactive) | 4.5 µM (inactive) | 13.3 µM (inactive) | 5.08 µM (inactive) | 0.69 µM (active) | 2.55 µM (inactive) | 15.3 µM (inactive) | 17.7 µM (inactive)
CC(C)(C)c1cc2c(OC/C=C/c3ccccc3)c(c1)Cc1cc(C(C#N)(OC/C=C/c3ccccc3)OC/C=C/c3ccccc3)cc(c1OC/C=C\c1ccccc1)Cc1cc(C(C)(C)C)cc(c1OC/C=C/c1ccccc1)Cc1cc(C(C#N)(OC/C=C\c3ccccc3)OC/C=C/c3ccccc3)cc(c1OC/C=C\c1ccccc1)C2 (stereo not given) | > 100 µM (inactive) | > 100 µM (inactive) | > 100 µM (inactive) | > 100 µM (inactive) | > 100 µM (inactive) | > 100 µM (inactive) | > 100 µM (inactive) | > 100 µM (inactive) | > 100 µM (inactive) | > 100 µM (inactive) | 30.1 µM (inactive) | 20.7 µM (inactive) | > 100 µM (inactive) | > 100 µM (inactive) | > 100 µM (inactive) | > 100 µM (inactive) | > 100 µM (inactive) | > 100 µM (inactive) | > 100 µM (inactive) | > 100 µM (inactive)
NC1=C(c2nc(-c3ccccc3)cs2)C(c2ccco2)c2c(c3ccccc3oc2=O)O1 (stereo not given) | > 100 µM (inactive) | > 100 µM (inactive) | > 100 µM (inactive) | 38.2 µM (inactive) | 3.32 µM (inactive) | > 100 µM (inactive) | > 100 µM (inactive) | > 100 µM (inactive) | > 100 µM (inactive) | > 100 µM (inactive) | > 100 µM (inactive) | > 100 µM (inactive) | > 100 µM (inactive) | > 100 µM (inactive) | > 100 µM (inactive) | > 100 µM (inactive) | > 100 µM (inactive) | > 100 µM (inactive) | > 100 µM (inactive) | > 100 µM (inactive)
Cc1ccc2[nH]c(=N/c3ccccc3C)/c(=N\c3ccccc3C)[nH]c2c1 | 16.1 µM (inactive) | 32.7 µM (inactive) | 40.2 µM (inactive) | 29.2 µM (inactive) | 24.1 µM (inactive) | 77.3 µM (inactive) | 26.1 µM (inactive) | 22.4 µM (inactive) | 48.1 µM (inactive) | 25.6 µM (inactive) | 20 µM (inactive) | > 100 µM (inactive) | 19.4 µM (inactive) | 41.1 µM (inactive) | 17.3 µM (inactive) | 26.9 µM (inactive) | 30 µM (inactive) | 64.4 µM (inactive) | 20.5 µM (inactive) | 46.8 µM (inactive)
Cc1cccc(CC(Cc2ccc(C)cc2C(=O)O)C(=O)O)c1 (stereo not given) | > 100 µM (inactive) | > 100 µM (inactive) | > 100 µM (inactive) | > 100 µM (inactive) | > 100 µM (inactive) | > 100 µM (inactive) | > 100 µM (inactive) | > 100 µM (inactive) | > 100 µM (inactive) | > 100 µM (inactive) | > 100 µM (inactive) | > 100 µM (inactive) | > 100 µM (inactive) | > 100 µM (inactive) | > 100 µM (inactive) | > 100 µM (inactive) | > 100 µM (inactive) | > 100 µM (inactive) | > 100 µM (inactive) | > 100 µM (inactive)
CCOC(=O)C1(O)C(=O)C2=C3C(=O)OC(C4OC(=O)c5c(c(O)c(O)c(O)c5C31)-c1c(cc(O)c(O)c1O)C(=O)OC1COC(=O)c3cc(O)c(O)c(O)c3-c3c(cc(O)c(O)c3O)C(=O)OC14)[C@@H]2O (stereo not given in full) | 15.7 µM (inactive) | 17 µM (inactive) | 36.5 µM (inactive) | 16.5 µM (inactive) | 30.8 µM (inactive) | 18.7 µM (inactive) | 19.2 µM (inactive) | 32.6 µM (inactive) | 22.4 µM (inactive) | 28.5 µM (inactive) | 15.8 µM (inactive) | 30.8 µM (inactive) | 26.4 µM (inactive) | 31 µM (inactive) | 29.3 µM (inactive) | > 100 µM (inactive) | 27.6 µM (inactive) | > 100 µM (inactive) | 15.2 µM (inactive) | > 100 µM (inactive)
